Consider `Cn1nc(-c2c(Cl)cncc2Cl)nc1-c1ccc(Cl)cc1Cl` [Compound 7], for which the melting point is 79 to 81 °C.

`Cn1nc(-c2c(Cl)cncc2Cl)nc1-c1ccncc1` [Compound 113]: the melting point fell in the range of 130 to 132 °C.

Consider `Cn1nc(-c2c(Cl)cncc2Cl)nc1C1(C)CC1(Cl)Cl` (centres unmarked) [Compound 133, 3-(3,5 dichloro-4-pyridyl)-5-(2,2-dichloro-1-methylcyclopropyl)-1-methyl[1,2,4]triazole], for which the melting point is 79 to 83 °C.

`Cn1nc(-c2nc(F)c(F)c(F)c2F)nc1-c1ccc(Cl)cc1` [Compound 155] showed a melting point of 154 to 156 °C.

In the case of `Cn1nc(-c2nc(Cl)ccc2Cl)nc1-c1ccc(Cl)cc1` [Compound 156], the melting point is 98 to 102 °C.

With `Cn1nc(-c2ncc(Cl)cc2Cl)nc1-c1ccc(Cl)cc1` [Compound 158], the melting point was 105 to 107 °C.

`Cc1ccc(-c2nc(-c3ncccc3Cl)nn2C)cc1` [Compound 159]: the melting point lay in the range of 113 to 117 °C.

Compound `Cc1nc(-c2c(Cl)cncc2Cl)nn1-c1ccc(Cl)cc1` [Example 19, 1-(4-Chlorophenyl)-5-methyl-3-(3,5-dichloro-4-pyridyl)-1H-1,2,4-triazole] displayed a melting point of 142 to 145 °C.

These data come from patent US6413992B1, “3-(substituted pyridyl)-1,2,4-triazole compounds” (Dow AgroSciences LLC, priority 1998, dated 2002).
